{"source": "patent US20250115595A1", "about": "“INHIBITORS OF HYPOXIA-INDUCIBLE FACTORS” (The Johns Hopkins University, priority 2021, published 2025)", "key": {"[1]": {"test_system": "HIF transcriptional activity", "assay": "Luciferase reporter assay (FLuc/RLuc) in hypoxic Hep3B-c1 cells", "assay_type": "cell-based", "conditions": "Homo sapiens, FLuc/RLuc ratio, 1% O2, 24 hours", "method": "The NCI CellMiner database contains expression data on 25,698 mRNAs in 60 human cancer cell lines that were exposed to 21,770 chemical compounds (Reinhold W C, et. al., Cancer Res. 2012; 72(14):3499-3511). The CellMiner database was interrogated for compounds that induced changes in gene expression highly correlated with those induced by acriflavine, but would be structurally unrelated to acriflavine. Compounds that satisfied these criteria were analyzed in Hep3B-c1 cells (Zhang H. et. al., Proc Natl Acad Sci USA. 2008; 105(50):19579-19586), which are stably transfected with: HIF dependent reporter plasmid p2.1, in which firefly luciferase (FLuc) coding sequences are located downstream from a hypoxia response element (HRE) and a basal SV40 promoter; and control reporter pSVR, in which Renilla luciferase (RLuc) coding sequences are downstream of the basal SV40 promoter only (FIG. 1A).\nHep3B-c1 cells (Zhang 2008), which are stably co-transfected with reporter plasmids p2.1, a hypoxia-inducible firefly luciferase reporter gene containing a hypoxia response element (HRE), and pSVR, a constitutively expressed Renilla luciferase reporter gene, were seeded on 24-well plates. Cells were treated with compounds the following day and exposed to 20% or 1% O2 for 24 hours. For transient transfection, cells were seeded, transfected with the listed plasmids and compounds, and exposed to 20% or 1% O2 for 24 hours. FLuc/RLuc ratios were determined using the Dual Luciferase Reporter Assay System (Promega) and the VICTOR Nivo plate reader (PerkinElmer)."}, "C57BL/6 mice": {"test_system": "C57BL/6 mice", "assay": "Laser CNV model, intravitreal dosing", "assay_type": "in vivo, mouse", "conditions": "single IVT injection 70 ng on day 3, day 7", "method": "To evaluate the efficacy of 32-134D following intraocular administration, the laser CNV model for neovascular (wet) age-related macular degeneration was used (FIG. 25A). C57BL/6 mice were treated with laser on day 0. On day 3, mice were treated with a single IVT injection with 32-134D (1 μl of 14 or 70 ng/μl solution) or with vehicle control. On day 7, mice were euthanized and choroidal flat mounts were stained with isolectin B4 to examine the area of CNV.\nIntraocular injections: Intravitreal injections were performed with a PLI-100A Pico-liter Microinjector (Warner Instruments, Harvard Bioscience) using pulled-glass micropipettes. Each micropipette was calibrated to deliver a 1 μl volume on depression of a foot switch. The mice were anesthetized with a ketamine (100 mg/kg) and xylazine (5 mg/kg) mixture, and under a dissecting microscope, the sharpened tip of the micropipette was passed through the sclera just posterior to the limbus into the vitreous cavity and the foot switch was depressed, which caused fluid to penetrate into the vitreous space. Test compound was injected into the vitreous cavity in OIR and STZ mice for vascular permeability test, retinal vasculature and lysates for WB and qPCR analysis."}, "[2]": {"assay": "Mouse pharmacokinetics in neurosensory retina after intraocular injection", "assay_type": "in vivo", "method": "Pharmacokinetic analysis of 32-134D in the neurosensory retina following intraocular administration was determined by liquid chromatography and tandem mass spectrometry (LC-MS/MS) to quantify the concentration of 32-134D in retinal tissue over 14 days following a single 70-ng intraocular injection of 32-134D (see Methods of all parameters). […] The total exposure (area under the curve or AUClast) was 72.3 nmol*day/g.\nMouse pharmacokinetics: C57BL/6 mice were administered 32-134D at 70 ng or 280 ng as a single intraocular injection. Mice (at least 3 mice per time point) were euthanized at 1, 3, 7, or 14 days after injection. For the 280-ng dose, a 10-day time point was added. 32-134D was quantified in retina by LC-MS/MS as previously described (S. Salman et al., 2022, J Clin Invest 132) with the following modifications. Retina tissue samples were homogenized in […] of 1×PBS (pH 7.4) before extraction. The standard curve and quality control samples were prepared in 1×PBS as a surrogate matrix. Retina tissue samples were then quantitated in nmol/g as: nominal concentration (nM)×initial dilution ([tissue weight (mg)+volume of solvent (μl)]/tissue weight (mg)). For all samples <10 nM, the value was reported as below the limits of detection. If at least on samples was >10 nM and one was <10 nM, then one half that value (5 nM) was imputed to calculate the concentration for that specimen and utilized in the average and standard deviation calculations.\nPharmacokinetic parameters: These were calculated from mean concentration-time data using noncompartmental methods in Phoenix WinNonlin version 8.3 (Certara, Princeton, NJ, USA). The Cmax and time to Cmax (Tmax) were the observed values. The AUClast was calculated using the log-linear trapezoidal method to the last quantifiable time point. The λz was determined from at least 3 points on the slope of the terminal phase of the concentration-time profile using a 1/y2 weighting factor. The T1/2 was determined by dividing 0.693 by […]. T1/2 was not reported if the correlation coefficient (r2) for λz was less than 0.9.\nBioanalytical method for mouse pharmacokinetics: Retina tissue samples were homogenized in 200 μL of 1×PBS (pH 7.4) before extraction. The standard curve and quality control samples were prepared in 1×PBS as a surrogate matrix for all matrices. Tissue homogenate or PBS (25 μL) was added to a borosilicate glass test tube and mixed with 150 μL of acetonitrile containing the internal standard (1 ng/mL of EXP-3179). For blank samples, 150 μL of acetonitrile was added without internal standard. Samples were vortex-mixed and centrifuged (1200×g for 5 minutes at ambient temperature) and transferred to an autosampler vial. […] The column effluent was monitored using an AB Sciex Triple Quadrupole 5500 mass spectrometer. […]"}}}
{"smiles": "Brc1ccc2c(-c3csc(-c4c[nH]c5c(Br)cccc45)n3)c[nH]c2c1", "note": "[Compound 32-134D, 4-(6-bromo-1H-indol-3-yl)-2-(7-bromo-1H-indol-3-yl)thiazole]", "values": [{"measurement": "IC50", "setting": "[1]", "result": 2500, "unit": "nM"}, {"measurement": "CNV area", "setting": "C57BL/6 mice", "result": "significant decrease"}, {"measurement": "time retina concentration exceeded in vitro IC50 of 3.5 μM", "setting": "[2]; single 70-ng intraocular injection", "result": 5.25, "unit": "days"}, {"measurement": "total exposure (AUClast) in neurosensory retina", "setting": "[2]; single 70-ng intraocular injection, 14 days", "result": 72.3, "unit": "nmol·days/g"}, {"measurement": "terminal half-life (T1/2) in retina", "setting": "[2]; single intraocular injection 280 ng", "result": 43.2, "unit": "h"}, {"measurement": "AUClast in neurosensory retina", "setting": "[2]; single intraocular injection 280 ng, through 14 days", "result": 147, "unit": "nmol·days/g"}]}
